Measurements: patent publication US20120076781A1, “METHODS OF TREATING CANCERS WITH HER3 ANTISENSE OLIGONUCLEOTIDES” (ENZON PHARMACEUTICALS, INC., priority 2009, published 2012)
Marks after values point to notes of the source that are not given here. In the oligonucleotide strings, read from the 5' end, every base follows the letter of its sugar. An asterisk marks phosphorothioate; unmarked linkages are phosphodiester. Other units and linkages are bracketed, terminal groups are in braces. A string of capitals states the bases alone. l = locked nucleic acid (LNA); [5mC] = 5-methylcytosine; d = 2'-deoxy (DNA)

Columns and labels:
HIF-1 alpha mRNA = HIF-1 alpha mRNA in 15PC3 xenograft tumor, different dosing cycle; assay type: in vivo, human; conditions: every third day
Method: (§1) To evaluate the knockdown efficacy of the HER3 oligomeric compounds in vivo, the female nude mice bearing 15PC3 xenografts developed by subcutaneous injection of 5×10^6 cells/mouse into the right axillary flank, were injected intravenously with the oligomers at various doses and injection schedules (i.e. single dose, qd, q3d, q4d). Scrambled oligomer SEQ ID NO: 236 served as a negative control. 24 hours after the last injection, the mice were euthanized and liver and tumor tissues were collected in RNAlater solution (Ambion). Total RNA was purified from the tissues and the levels of HER3 mRNA were determined by quantitative reverse transcription-real time PCR (qRT-PCR) using the QuantiTect Probe RT-PCR kit (Cat#: 204443; Qiagen). GAPDH mRNA served as an internal control.
(§2) The knockdown efficacy of oligomers was evaluated in vivo in nude mice bearing xenograft tumors derived from 15PC3 cells or A549 cells (NSCLC) or N87 cells (gastric carcinoma) using a similar protocol to the one described above in Example 11. Oligomers were administered by injection every third day in 2-4 doses. Tissues were harvested 3 or 4 days after the last injection.
(§3) Data in Tables 6 and 7 are presented as % HER3 mRNA or HIF-1 alpha mRNA relative to saline treated controls in liver and tumor samples after i.v. dosing of animals with the indicated oligomers.

HER3 mRNA [1] = assay: HER3 mRNA knockdown in liver of xenograft-bearing nude mice, different dosing cycle; assay type: in vivo, mouse; conditions: for Liver HER3 mRNA relative to saline treated controls: 15PC3 xenograft mice, every third day
Method: as §1
as §2, with “Oligomers were administered by injection every third day in 2-4 doses.” left out
as §3

Mouse HER3 mRNA = assay: HER3 mRNA knockdown in liver of nude mice bearing 15PC3 xenografts, qd x 5 (qRT-PCR); assay type: in vivo; conditions: i.v.
Method: as §1
(§4) 200 ng of total RNA was used in the PCR reaction. The data analyses were performed by using the ABI-7500 PCR Fast System included software.
(§5) Data in Table 5 are presented as % HER3 mRNA levels relative to saline treated controls in liver and tumor samples after i.v. dosing of animals on 5 consecutive days with oligonucleotides in the doses indicated.

human HER3 mRNA [2] = assay: HER3 mRNA knockdown in 15PC3 xenograft tumor in nude mice, qd x 5 (qRT-PCR); assay type: in vivo; conditions: i.v., relative to saline controls
Method: as §1, §4, §5

HER3 mRNA [3] = assay: HER3 mRNA knockdown in A549 (NSCLC) xenograft tumor; assay type: in vivo, human; conditions: 35 mg/kg, q4d x 3, i.v.
Method: as §1, §2, §3

HER3 mRNA [4] = assay: HER3 mRNA knockdown in 15PC3 xenograft tumor, different dosing cycle; assay type: in vivo, human; conditions: every third day
Method: as §1, §2, §3

human HER3 mRNA [5] = assay: Down-regulation of HER3 mRNA in transfected HUH-7 cells, real-time PCR; assay type: cell-based; conditions: 25 nM, HUH-7 cells (indicated by *)
Method: HUH7: The human hepatocarcinoma cell line was cultured in DMEM (Sigma)+10% fetal bovine serum (FBS)+2 mM Glutamax I+gentamicin (25 μg/ml)+1× Non Essential Amino Acids.
The cells were treated with oligonucleotides using the cationic liposome formulation LipofectAMINE 2000 (Gibco) as transfection vehicle. Cells were seeded in 6-well cell culture plates (NUNC) and treated when 80-90% confluent. Oligomer concentrations ranged from 1 nM to 25 nM final concentration. Formulation of oligomer-lipid complexes was carried out essentially as described by the manufacturer using serum-free OptiMEM (Gibco) and a final lipid concentration of 5 μg/mL LipofectAMINE 2000. […]
(§6) The sample content of human HER3, EGFR and HER2 mRNA was quantified using the human HER3, EGFR and HER2 ABI Prism Pre-Developed TaqMan Assay Reagents (Applied Biosystems cat. no. Hs00951444_ml (HER3), Hs00193306_ml (EGFR) and Hs00170433_ml (HER2) according to the manufacturer's instructions.
Glyceraldehyde-3-phosphate dehydrogenase (GAPDH) mRNA quantity was used as an endogenous control for normalizing any variance in sample preparation. The sample content of human GAPDH mRNA was quantified using the human GAPDH ABI Prism Pre-Developed TaqMan Assay Reagent (Applied Biosystems cat. no. 4310884E) according to the manufacturer's instructions. […]

human HER2 mRNA = assay: Down-regulation of HER2 mRNA in transfected 15PC3 cells, real-time PCR; assay type: cell-based; conditions: 25 nM
Method: (§7) 15PC3: The human prostate cancer cell line 15PC3 was cultured in DMEM (Sigma)+10% fetal bovine serum (FBS)+2 mM Glutamax I+gentamicin (25 μg/ml).
(§8) The cells were treated with oligonucleotides using the cationic liposome formulation LipofectAMINE 2000 (Gibco) as transfection vehicle. Cells were seeded in 6-well cell culture plates (NUNC) and treated when 80-90% confluent. Oligomer concentrations ranged from 1 nM to 25 nM final concentration. Formulation of oligomer-lipid complexes was carried out essentially as described by the manufacturer using serum-free OptiMEM (Gibco) and a final lipid concentration of 5 μg/mL LipofectAMINE 2000. Cells were incubated at 37° C. for 4 hours and treatment was stopped by removal of oligomer-containing culture medium. Cells were washed and serum-containing medium was added. After oligomer treatment, cells were allowed to recover for 20 hours before they were harvested for RNA analysis.
(§9) Total RNA was extracted from cells transfected as described above and using the Qiagen RNeasy kit (Qiagen cat. no. 74104) according to the manufacturer's instructions. First strand synthesis was performed using Reverse Transcriptase reagents from Ambion according to the manufacturer's instructions.
(§10) For each sample 0.5 μg total RNA was adjusted to (10.8 μl) with RNase free H2O and mixed with 2 μl random decamers (50 μM) and 4 μl dNTP mix (2.5 mM each dNTP) and heated to 70° C. for 3 min after which the samples were rapidly cooled on ice. After cooling the samples on ice, 2 μl 10× Buffer RT, 1 μl MMLV Reverse Transcriptase (100 U/μl) and 0.25 μl RNase inhibitor (10 U/μl) was added to each sample, followed by incubation at 42° C. for 60 min, heat inactivation of the enzyme at 95° C. for 10 min, and then cooling the sample to 4° C.
as §6
(§11) Glyceraldehyde-3-phosphate dehydrogenase (GAPDH) mRNA quantity was used as an endogenous control for normalizing any variance in sample preparation. The sample content of human GAPDH mRNA was quantified using the human GAPDH ABI Prism Pre-Developed TaqMan Assay Reagent (Applied Biosystems cat. no. 4310884E) according to the manufacturer's instructions.
(§12) The cDNA from the first strand synthesis performed as described in Example 5 was diluted 2-20 times, and analyzed by real time quantitative PCR using Taqman 7500 FAST or 7900 FAST from Applied Biosystems. The primers and probe were mixed with 2× Taqman Fast Universal PCR master mix (2×) (Applied Biosystems Cat. #4364103) and added to 4 μl cDNA to a final volume of 10 μl. Each sample was analysed in duplicate. Assaying 2-fold dilutions of a cDNA that had been prepared on material purified from a cell line expressing the RNA of interest generated standard curves for the assays. Sterile H2O was used instead of cDNA for the no-template control. PCR program: 95° C. for 30 seconds, followed by 40 cycles of 95° C., 3 seconds, 60° C., 20-30 seconds. Relative quantities of target mRNA sequence were determined from the calculated Threshold cycle using the Applied Biosystems Fast System SDS Software Version 1.3.1.21. or SDS Software Version 2.3.
(§13) Oligonucleotides presented in Table 4 were evaluated for their potential to down-regulate HER3, EGFR and HER2 mRNA at concentrations of 1, 5 and 25 nM in 15PC3 cells (or HUH-7 as indicated by *) (see FIGS. 2, 3, 4 and 5). SEQ ID NOs: 235 and 236 were used as scrambled controls.
(§14) The data in Table 4 are presented as percentage down-regulation of mRNA relative to mock transfected cells at 25 nM. Lower-case letters represent DNA monomers, bold, upper-case letters represent β-D-oxy-LNA monomers. All cytosines in LNA monomers are 5-methylcytosines. Subscript “s” represents a phosphorothioate linkage.

human EGFR mRNA = assay: Down-regulation of EGFR mRNA in transfected 15PC3 cells, real-time PCR; assay type: cell-based; conditions: 25 nM
Method: as §7, §8, §9, §10, §6, §11, §12, §13, §14

HER3 mRNA [6] = assay: HER3 mRNA knockdown in N87 (gastric carcinoma) xenograft tumor; assay type: in vivo, human; conditions: 25 mg/kg, q3d x 5, i.v.
Method: as §1
as §2, with “Oligomers were administered by injection every third day in 2-4 doses.” left out
as §3

Substance: CSGSCSASgSaStStSaSgSaSaSASCSCSt (l[5mC]*lG*l[5mC]*lA*dG*dA*dT*dT*dA*dG*dA*dA*lA*l[5mC]*l[5mC]*dT) [SEQ ID NO: 236, scrambled oligomer, negative control, reference compound]
- Tumor Hif1A mRNA relative to saline treated controls (HIF-1 alpha mRNA; 76.3 x 4 mg/kg i.v.): 101 ± 13.8%
- Liver HER3 mRNA relative to saline treated controls (HER3 mRNA [1]; 76.3 x 4 mg/kg i.v.): 115.9 ± 26.3%
- HER3 Liver (HER3 mRNA [1]; A549 xenograft mice, 35 mg/kg, q4d x 3, i.v.): 97.5 ± 21.2 % saline control
- HER3 mRNA Liver (Mouse HER3 mRNA; 22.9 mg/kg): 81.4 ± 6.5 % of Sal ctrl
- HER3 mRNA Liver (Mouse HER3 mRNA; 30 mg/kg): 87.6 ± 19 % of Sal ctrl
- HER3 mRNA Liver (Mouse HER3 mRNA; 60 mg/kg): 86.5 ± 9.9 % of Sal ctrl
- HER3 mRNA Liver (Mouse HER3 mRNA; 76.3 mg/kg): 78 ± 17 % of Sal ctrl
- HER3 mRNA Tumor (human HER3 mRNA [2]; 22.9 mg/kg): 119.3 ± 24.9%
- HER3 mRNA Tumor (human HER3 mRNA [2]; 30 mg/kg): 101.2 ± 21.1%
- HER3 mRNA Tumor (human HER3 mRNA [2]; 60 mg/kg): 95.5 ± 12.7%
- HER3 mRNA Tumor (human HER3 mRNA [2]; 76.3 mg/kg): 100 ± 10.5%
- HER3 Tumor (HER3 mRNA [3]): 87.6 ± 11.9 % saline control
- Tumor HER3 mRNA relative to saline treated controls (HER3 mRNA [4]; 76.3 x 4 mg/kg i.v.): 106 ± 6.6%

Substance: GSASCSaStScSaScStScStSgSgSTSGST (lG*lA*l[5mC]*dA*dT*dC*dA*dC*dT*dC*dT*dG*dG*lT*lG*lT; antisense) [SEQ ID NO: 196]
- HER3: percentage down-regulation of mRNA relative to mock transfected cells (human HER3 mRNA [5]): 77.0%*

Substance: GSCSTScScSaSgSaScSaStScSaSCSTSC (antisense lG*l[5mC]*lT*dC*dC*dA*dG*dA*dC*dA*dT*dC*dA*l[5mC]*lT*l[5mC]) [SEQ ID NO: 169, β-D-oxy-LNA/DNA phosphorothioate gapmer antisense oligonucleotide targeting HER3]
- Tumor Hif1A mRNA relative to saline treated controls (HIF-1 alpha mRNA; 37.7 x 4 mg/kg i.v.): 94.6 ± 19.6%
- Liver HER3 mRNA relative to saline treated controls (HER3 mRNA [1]; 37.7 x 4 mg/kg i.v.): 39 ± 4.6%
- HER2: percentage down-regulation of mRNA relative to mock transfected cells (human HER2 mRNA): 75.8%
- HER3 mRNA Liver (Mouse HER3 mRNA; 11.3 mg/kg): 10.2 ± 5.5 % of Sal ctrl
- HER3 mRNA Liver (Mouse HER3 mRNA; 37.7 mg/kg): 20.7 ± 9.8 % of Sal ctrl
- EGFR: percentage down-regulation of mRNA relative to mock transfected cells (human EGFR mRNA): 95.2%
- HER3 mRNA Tumor (human HER3 mRNA [2]; 37.7 mg/kg): 77 ± 10%
- Tumor HER3 mRNA relative to saline treated controls (HER3 mRNA [4]; 37.7 x 4 mg/kg i.v.): 81.6 ± 12.7%

Substance: TSASGScScStStStSgSaScScStSCSTSC (antisense lT*lA*lG*dC*dC*dT*dT*dT*dG*dA*dC*dC*dT*l[5mC]*lT*l[5mC]) [SEQ ID NO: 249, reference compound]
- HER3 Liver (HER3 mRNA [1]; N87 xenograft mice, 25 mg/kg, q3d x 5, i.v.): 123 ± 4.5 % saline control
- HER3 Tumor (HER3 mRNA [6]): 99.0 ± 8.9 % saline control
